Experimental data from PMC8306477, “Neuroprotective Effect of Terpenoids Recovered from Olive Oil By-Products” (Foods, 2021).
Like-named read-outs stand apart in the source and are kept apart here. Marks after values point to notes of the source that are not given here.

What was measured:
[1] = PAMPA-BBB permeability of terpenes of SS adsorbate; format: in vitro ADME
Procedure: Previously, the BBB solution was prepared by dissolving 8 mg of PBL and 4 mg of cholesterol in 600 μL n-dodecane. Ethanolic olive leaves extract was dissolved in buffer (5 mM pH 7.4) as an initial solution at 10 mg/mL (EtOH/buffer, 1:1, v/v). Then, the filter membrane of the donor microplate was impregnated with 5 μL of BBB solution and the acceptor microplate was filled with 350 μL of buffer. Then, 200 μL of initial solution was added to the donor microplate which was assembled like a sandwich over the acceptor microplate. The microplate was incubated in the dark for 4 h at 37 °C and continuous agitation. After the incubation process, 200 μL were taken from each microplate, placed into a vial, dried, and reconstituted in 50 μL of EtOH to obtain donor and acceptor solutions. Both solutions were injected in the GC-qTOF-MS system to identify and compare the compounds present in both microplates. […] CD(t) is compound concentration in the donor well at time t and CA(t) is compound concentration in the acceptor well at time t.

[2] = ABTS•+ radical scavenging assay; conditions: mean ± SD (n = 3); 45 min, 30 °C
Procedure: Antioxidant activity of all olive leaves extracts was measured using the ABTS^•+ radical scavenging assay according to Re et al., (1999) with modifications. […] After this time, radical ABTS^•+ solution was diluted with the buffer (5 mM, pH 7.4) to adjust the absorbance to 0.700 ± 0.002 measured at 734 nm wavelength and 30 °C. The 96-well microplate containing 250 μL ABTS^•+ solution and 100 μL of olive leaves extract at six different concentrations (from 14.3 to 143 μg/mL EtOH/H2O (1:1, v/v)) was incubated in the dark at 30 °C. After 45 min, the absorbance at 734 nm was measured. Trolox and ascorbic acid were used as reference standards while rosemary extract was used as natural reference standard. All measurements were performed in triplicate. ABTS^•+ inhibition percentage from olive leaves extracts was calculated as follows:(3) %Inh=AABTScontrol−(Asample−Asample blank)/AABTS control×100 where AABTScontrol is the absorbance of ABTS^•+ radical in buffer at t = 0 min; Asample, is the absorbance of an ABTS^•+ solution mixed with extracts; and Asample blank is the absorbance of samples without ABTS^•+.

[3] = ROS scavenging capacity, ORAC method; conditions: mean ± SD (n = 3)
Procedure: Oxygen radical absorbance capacity (ORAC) method was performed as reported by Ou et al. (2001). Briefly, 100 μL of the extract sample at different concentrations (5–50 μg/mL) in EtOH/H2O (1: 9, v/v), 100 μL of AAPH (590 mM) in PBS buffer (30 mM, pH = 7.5), 25 μL of fluorescein (10 μM) in PBS buffer, and 100 μL of PBS buffer were placed in a 96-well microplate. The fluorescence kinetic measurements were recorded at λexcitation = 485 nm and λemission = 530 nm at intervals of 5 min for a runtime of 60 min at 37 °C. Ascorbic acid was used as the reference standard. Each measurement was carried out in triplicate and the capacity of the extract for scavenging peroxyl radicals generated by spontaneous decomposition of AAPH was calculated through the inhibition percentage of the difference between the Area Under the Curve (AUC) of fluorescence decay in the presence (AUCsample) or absence (AUCcontrol) of the sample by Equation (4). (4) %Inh=AUCcontrol−AUCsample/AUCcontrol×100

[4] = RNS scavenging capacity, nitric oxide radical (Griess) assay; conditions: NO• scavenging; mean ± SD (n = 3)
Procedure: RNS was evaluated by the nitric oxide (NO^•) radical scavenging assay of OLE, according to Ho et al. (2010), based on the reaction of Griess. The 96-well microplate filling distribution was as follows: 100 μL of extract sample at different concentrations (250–2500 μg/mL) in EtOH/H2O (1:3, v/v), and 50 μL of SNP (5 mM) in buffer (30 mM pH = 7.5). The mixture was incubated at room temperature for 2 h under direct light. Nitrile ion concentration was measured at […] after the addition of […] Ascorbic acid was used as the reference standard. Each measurement was carried out in triplicate and the capacity of the extract for scavenging NO^• radicals was calculated through inhibition percentage as described in Equation (3).

[5] = set-up: method as in PMID 23565574; conditions: BBB permeability of pharmacological drugs; cited from earlier work
[6] = terpene within Sea Sand Adsorbate, 4 h, 37 °C, buffer pH 7.4, GC-qTOF-MS, read-out: PAMPA-BBB Log Pe (RSD %) (converted)

## CC(C)=CCC/C(C)=C/CC/C(C)=C/CC/C=C(\C)CC/C=C(\C)CCC=C(C)C [Squalene]
[1]; [6]
  Papp at 4 h: 13.2 ×10⁻⁶ cm/s

## CC1(C)CC[C@]2(CO)CC[C@]3(C)C(=CC[C@@H]4[C@@]5(C)CC[C@H](O)C(C)(C)[C@@H]5CC[C@]43C)[C@@H]2C1 [Erythrodiol]
[1]; [6]
  Papp at 4 h: 0.575 ×10⁻⁶ cm/s

## O=C1O[C@H]([C@@H](O)CO)C(O)=C1O [Ascorbic acid]
[2]
  Antioxidant Capacity by ABTS IC50: 25.00 ± 0.30 ^a µg/mL
[3]
  ROS IC50: 1.29 ± 0.09 ^b µg/mL
[4]
  RNS IC50: 1100.90 ± 13.96 ^b µg/mL

## O=c1c(O)c(-c2ccc(O)c(O)c2)oc2cc(O)cc(O)c12 [Quercetin]
[5]
  log Pe ± SD: −7.02 ± 0.08 cm/s

## CC1(C)CC[C@]2(C)CC[C@]3(C)C(=CC[C@@H]4[C@@]5(C)CC[C@H](O)C(C)(C)[C@@H]5CC[C@]43C)[C@@H]2C1 [β-Amyrin]
[1]; pH 7.4
  Papp at 4 h: 0.479 ×10⁻⁶ cm/s

## COc1ccc2c3c1O[C@H]1C[C@@H](O)C=C[C@@]31CCN(C)C2 [Galantamine]
[5]
  log Pe ± SD: −5.35 ± 0.02 cm/s

## CC[C@H](CC[C@@H](C)[C@H]1CC[C@H]2[C@@H]3CC=C4C[C@@H](O)CC[C@]4(C)[C@H]3CC[C@]12C)C(C)C [β-Sitosterol]
[1]; [6]
  Papp at 4 h: 0.912 ×10⁻⁶ cm/s

## Cc1c(O)cc2c(c1C)O[C@](C)(CCC[C@H](C)CCC[C@H](C)CCCC(C)C)CC2 [γ-Tocopherol]
[1]; [6]
  Papp at 4 h: 8.91 ×10⁻⁶ cm/s

## Cc1c(C)c2c(c(C)c1O)CC[C@@](C)(CCC[C@H](C)CCC[C@H](C)CCCC(C)C)O2 [α-Tocopherol]
[1]; [6]
  Papp at 4 h: 1.15 ×10⁻⁶ cm/s

## Cc1c(C)c2c(c(C)c1O)CCC(C)(C(=O)O)O2 (racemic) [Trolox, (±)-6-Hydroxy-2,5,7,8-tetramethylchromane-2-carboxylic acid]
[2]
  Antioxidant Capacity by ABTS IC50: 2.50 ± 0.02 ^r µg/mL
[3]
  ROS IC50: 0.98 ± 0.11 ^c µg/mL

## C[C@H]1[C@H](C)CC[C@]2(CO)CC[C@]3(C)C(=CC[C@@H]4[C@@]5(C)CC[C@H](O)C(C)(C)[C@@H]5CC[C@]43C)[C@H]12 [Uvaol]
[1]; [6]
  Papp at 4 h: 1.51 ×10⁻⁶ cm/s
